The text below walks through data of ChEMBL document CHEMBL4382202, “1-(2-Hydroxybenzoyl)-thiosemicarbazides are promising antimicrobial agents targeting d-alanine-d-alanine ligase in bacterio” (Eur J Med Chem, 2018).

Active and inactive are the calls of the source. The calls are words filed in the database; no cut-off is given here.

Test [1] addresses T1, D-alanine--D-alanine ligase (Enterococcus faecalis (strain ATCC 700802 / V583)) (UniProt Q47758).
T1 sequence (whole entry): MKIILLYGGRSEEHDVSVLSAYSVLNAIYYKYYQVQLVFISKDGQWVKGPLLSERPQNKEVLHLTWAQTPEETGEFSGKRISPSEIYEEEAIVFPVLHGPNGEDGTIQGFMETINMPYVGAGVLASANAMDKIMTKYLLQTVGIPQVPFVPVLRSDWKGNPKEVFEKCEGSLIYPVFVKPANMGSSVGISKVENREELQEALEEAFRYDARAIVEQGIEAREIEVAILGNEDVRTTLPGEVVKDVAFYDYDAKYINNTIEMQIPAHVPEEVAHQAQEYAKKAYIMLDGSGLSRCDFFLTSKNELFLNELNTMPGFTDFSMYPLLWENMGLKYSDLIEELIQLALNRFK
In words: Inhibition of Enterococcus faecalis JH2-2 C-terminal 6His-tagged DdlB expressed in Escherichia coli LMG194 assessed as Vmax/Km of D-Ala at 1 uM by Biomol Green reagent assay (reference value: 11.02 /min).

Test [2] concerns Escherichia coli. In words: Antibacterial activity against Escherichia coli ATCC 25922 after 18 to 24 hrs by microdilution assay. In kind it is functional, organism-based.
Test [3] deals with Prothrombin (Homo sapiens) (UniProt P00734). In words: Inhibition of human thrombin at 10 uM using Z-GPR-AMC as substrate after 30 mins by fluorimetric analysis relative to control.
Test [4] deals with Indoleamine 2,3-dioxygenase 1 (Homo sapiens) (UniProt P14902). In words: Inhibition of human IDO at 10 uM using L-tryptophan as substrate after 30 mins by Ehrlich's reagent based assay relative to control.
Chain of Indoleamine 2,3-dioxygenase 1 (Homo sapiens) (P14902 whole entry, looked up): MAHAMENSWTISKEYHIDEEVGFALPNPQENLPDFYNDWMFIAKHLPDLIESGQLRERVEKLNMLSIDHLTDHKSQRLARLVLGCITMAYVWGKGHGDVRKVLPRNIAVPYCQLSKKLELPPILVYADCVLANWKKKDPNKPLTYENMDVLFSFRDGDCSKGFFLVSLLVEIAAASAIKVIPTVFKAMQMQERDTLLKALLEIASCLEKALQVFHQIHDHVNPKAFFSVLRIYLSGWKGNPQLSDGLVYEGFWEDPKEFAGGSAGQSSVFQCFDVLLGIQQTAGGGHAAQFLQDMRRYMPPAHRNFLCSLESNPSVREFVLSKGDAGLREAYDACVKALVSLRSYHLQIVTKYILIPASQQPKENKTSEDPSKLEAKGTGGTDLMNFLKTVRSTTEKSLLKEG
In test [5] the test system is Escherichia coli. The test can be described thus: Inhibition of Escherichia coli DNA topoisomerase 4 at 10 uM using interlinked kDNA as substrate after 1 hr by ethidium bromide staining-based agarose gel electrophoresis relative to control.
In test [6] the target is cGMP-inhibited 3',5'-cyclic phosphodiesterase 3A (Homo sapiens) (UniProt Q14432). In words: Inhibition of human recombinant PDE3A using [3H]cAMP at 10 uM after 20 mins by scintillation counting analysis relative to control.
Chain of cGMP-inhibited 3',5'-cyclic phosphodiesterase 3A (Homo sapiens) (Q14432 whole entry): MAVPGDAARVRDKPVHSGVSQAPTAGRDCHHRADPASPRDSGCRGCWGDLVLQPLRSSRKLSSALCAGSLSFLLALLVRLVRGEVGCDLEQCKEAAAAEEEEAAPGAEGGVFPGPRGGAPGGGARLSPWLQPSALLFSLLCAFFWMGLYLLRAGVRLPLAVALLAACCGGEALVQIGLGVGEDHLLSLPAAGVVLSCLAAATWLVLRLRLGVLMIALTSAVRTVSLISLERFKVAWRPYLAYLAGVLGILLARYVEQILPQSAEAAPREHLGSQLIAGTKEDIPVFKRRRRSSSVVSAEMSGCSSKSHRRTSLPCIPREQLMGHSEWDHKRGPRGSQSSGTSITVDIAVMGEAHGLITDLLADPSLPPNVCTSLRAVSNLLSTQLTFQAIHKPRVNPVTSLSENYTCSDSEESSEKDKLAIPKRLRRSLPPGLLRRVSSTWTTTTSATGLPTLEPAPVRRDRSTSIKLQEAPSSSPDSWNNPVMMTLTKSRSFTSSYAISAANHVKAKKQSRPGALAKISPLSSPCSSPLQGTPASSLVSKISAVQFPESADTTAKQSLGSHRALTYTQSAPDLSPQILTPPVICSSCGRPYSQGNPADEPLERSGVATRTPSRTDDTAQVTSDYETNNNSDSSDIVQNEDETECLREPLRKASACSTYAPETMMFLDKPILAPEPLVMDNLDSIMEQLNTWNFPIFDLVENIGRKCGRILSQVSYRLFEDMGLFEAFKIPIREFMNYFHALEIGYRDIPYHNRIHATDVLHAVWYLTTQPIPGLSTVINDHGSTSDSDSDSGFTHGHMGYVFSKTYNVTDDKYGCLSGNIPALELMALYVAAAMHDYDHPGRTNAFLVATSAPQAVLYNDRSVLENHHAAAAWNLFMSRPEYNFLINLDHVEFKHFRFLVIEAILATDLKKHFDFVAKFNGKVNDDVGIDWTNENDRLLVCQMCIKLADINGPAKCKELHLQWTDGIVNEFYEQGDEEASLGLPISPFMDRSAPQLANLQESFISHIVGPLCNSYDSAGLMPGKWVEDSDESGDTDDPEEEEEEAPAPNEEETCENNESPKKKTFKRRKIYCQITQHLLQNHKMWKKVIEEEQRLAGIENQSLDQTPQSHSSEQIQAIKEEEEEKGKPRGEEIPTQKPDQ
Test [7] concerns the target Monoglyceride lipase (Homo sapiens) (UniProt Q99685). In words: Inhibition of human MAGL at 10 uM relative to control.
Test [8] deals with GABA-A receptor; alpha-1/beta-2/gamma-2 (Homo sapiens) (UniProt P14867+P47870+P18507). In words: Displacement of [3H]muscimol from recombinant human GABAalpha1beta2gamma2 at 10 uM after 120 mins by scintillation counting method relative to control. In kind it is protein-complex assay.
The target of test [9] is L-lactate dehydrogenase A chain (Homo sapiens) (UniProt P00338). In words: Inhibition of human recombinant full-length LDHA at 10 uM using sodium pyruvate as substrate after 60 mins by resazurin dye-based assay relative to control.
A further test deals with Staphylococcus aureus. The test can be described thus: Bactericidal activity against Staphylococcus aureus ATCC 25923 assessed as reduction of bacterial load at 2 to 5 times MIC after 24 hrs by time kill assay. In kind it is functional, organism-based.

Chain of Monoglyceride lipase (Homo sapiens) (Q99685 whole entry): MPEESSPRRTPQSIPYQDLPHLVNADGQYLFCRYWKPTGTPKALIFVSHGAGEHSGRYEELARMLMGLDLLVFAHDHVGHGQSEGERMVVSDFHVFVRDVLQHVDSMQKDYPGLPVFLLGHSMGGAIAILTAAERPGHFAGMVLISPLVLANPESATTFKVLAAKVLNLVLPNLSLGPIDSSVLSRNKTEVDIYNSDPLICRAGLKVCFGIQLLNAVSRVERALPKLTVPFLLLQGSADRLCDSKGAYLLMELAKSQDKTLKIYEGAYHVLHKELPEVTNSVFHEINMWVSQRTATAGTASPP

On to `O=C(NNC(=S)Nc1ccc(Cl)c(Cl)c1)c1ccccc1O`, for which, in [1], the Vmax/Km is 6.93 min⁻¹. The MIC result in the test on Escherichia coli [2] is “inactive”. Further, the inhibition (in test [3]; in test [4]; in the test on Escherichia coli [5]; in test [6]; in [7]; in test [8]) was < 30% throughout. For the same molecule, the inhibition in test [9] was < 30%. The result in the test on Staphylococcus aureus was Active.
